From US5225436A, “Aryl substituted naphthalene derivatives” (Schering Corporation, priority 1991, dated 1993)
Read-outs that look alike come from different tables or passages of the source.

Assays:
[1] = tested on: SRS-A / leukotriene release from antigen-challenged, sensitized guinea pig lung; assay: Inhibition of SRS-A (leukotriene) release from antigen-challenged, sensitized guinea pig lung; type: cell-based; parameters: inhibition: dose or concentration left out as unconfirmed; details: Cavia porcellus; for inhibition: Dose 30 μm (μM)
Source text: The anti-allergy method of this invention is identified by tests which measure a compound's inhibition of leukotriene release in sensitized guinea pigs. Sensitized guinea pigs are killed by a blow to the head and the lungs removed and cleaned of visible connective tissue, trachea and large blood vessels. The lungs from individual animals are sliced into fragments approximately 1 mm in thickness using a McIlwain tissue chopper and then washed with oxygenated Tyrode's buffer. Weighed aliquots (approximately 400 mg wet weight) of lung are transferred into vials containing 2 ml of fresh Tyrode's solution (containing 10 mM cysteine) and incubated in the presence or absence of test compound for 12 min at 37° C. The tissues are then challenged with 20 μg ovalbumin/ml (final concentration) and incubated for 15 min. To measure leukotriene release, an aliquot of supernatant fluid is extracted with 4 volumes of 100% ethanol. After removal of the precipitated protein, the clear fluid is dried under a stream of N2 gas. The leukotriene content is measured by a radioimmunoassay using [^3 H]LTC4 and antiserum obtained from New England Nuclear. The cross-reactivity of the antiserum for LTD4 is 55%. Percent inhibition of lekotriene release is calculated by comparing for each lung the release in the presence of the test compound to that in the absence of test compound. Representative compounds of the invention at a relative dose of 50 μM of tissue are found to inhibit leukotriene release in the test procedure as indicated below in Table 1: […]

[2] = tested on: anaphylactic bronchospasm (antigen-induced SRS-A mediated bronchoconstriction); assay: Inhibition of anaphylactic bronchospasm in sensitized guinea pigs; type: in vivo, guinea pig; details: Cavia porcellus, iv, 0.25 h; for inhibition in vivo at 10 mg/kg: read-out: % Inhibition of anaphylactic bronchospasm; for inhibition in vivo at 3 mg/kg: Dose 3 mpk
Procedure: The anti-allergy method of this invention is identified by tests which measure a compound's inhibition of anaphylactic bronchospams-in sensitized guinea pigs having antigen-induced SRS-A mediated bronchoconstriction. Allergic bronchospams was measured in actively sensitized guinea pigs by a modification of the procedure of Konzett and Rossler, Arch. Exptl. Pathol. Pharmakol., 194, pp. 71-74 (1940). Male Hartley guinea pigs were sensitized with 5 mg ovalbumin injected ip and 5 mg injected sc in 1 ml saline on day 1 and 5 mg ovalbumin injected ip on day 4. The sensitized animals were used 3-4 weeks later. To measure anaphylactic bronchospasm, sensitized guinea pigs were fasted overnight and the following morning were anesthetized with 0.9 ml/kp ip dialurethane. The trachea and jugular vein were cannulated and the animals were ventilated by a Harvard rodent respirator. A side arm to the tracheal cannula was connected to a Harvard pressure transducer to obtain a continuous measure of intratracheal pressure. An increase in intratracheal pressure was taken as a measure of bronchoconstriction. Each guinea pig was injected iv with 1 mg/kg propranolol, 5 mg/kg indomethacin and 2 mg/kg mepyramine given together in a volume of […]. Fifteen minutes later, the animals were challenged with antigen (0.5 percent ovalbumin) delivered as an aerosol generated from a DeVilbiss Model 65 ultrasonic nebulizer and delivered through the tracheal cannula for 30 seconds. Bronchoconstriction was measured as the peak increase in intratracheal pressure occurring within 15 minutes after antigen challenge.

5-lipoxygenase = target: T1, 5-lipoxygenase (Homo sapiens, UniProt P09917); assay: 5-Lipoxygenase assay with human neutrophils; type: cell-based; details: 5 min, Human PMN, dose 15 μm (μM)
T1 construct: Human polymorphonuclear leukocytes (neutrophils) were obtained from normal healthy volunteers; endogenous in cells; host or cells: human blood neutrophils from healthy volunteers
T1 sequence (P09917 1-674): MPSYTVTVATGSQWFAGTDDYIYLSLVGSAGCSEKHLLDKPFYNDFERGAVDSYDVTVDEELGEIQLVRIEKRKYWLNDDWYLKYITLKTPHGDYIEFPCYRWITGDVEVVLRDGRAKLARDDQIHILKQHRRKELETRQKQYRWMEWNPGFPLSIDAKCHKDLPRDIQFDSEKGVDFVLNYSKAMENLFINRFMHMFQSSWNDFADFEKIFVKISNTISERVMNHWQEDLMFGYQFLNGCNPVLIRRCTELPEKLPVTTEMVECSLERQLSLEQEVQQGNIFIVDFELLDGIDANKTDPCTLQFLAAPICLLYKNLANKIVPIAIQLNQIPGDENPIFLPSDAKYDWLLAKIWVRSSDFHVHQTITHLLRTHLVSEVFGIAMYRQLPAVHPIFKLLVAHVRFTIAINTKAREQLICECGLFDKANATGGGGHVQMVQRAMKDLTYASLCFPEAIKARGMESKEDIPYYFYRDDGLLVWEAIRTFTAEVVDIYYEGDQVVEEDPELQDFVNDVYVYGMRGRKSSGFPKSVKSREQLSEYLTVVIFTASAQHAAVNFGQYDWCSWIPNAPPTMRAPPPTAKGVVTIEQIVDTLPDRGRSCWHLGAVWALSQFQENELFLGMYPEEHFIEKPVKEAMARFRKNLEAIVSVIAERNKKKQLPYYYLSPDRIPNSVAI
Procedure: Human polymorphonuclear leukocytes (neutrophils) were obtained from normal healthy volunteers by venipuncture and collected with heparin anticoagulant. Neutrophils were isolated by Dextran/Ficol sedimentation as described (Billah et al., J. Biol. Chem. 260, 6899-6906 (1985)). In brief, 30 ml of blood was mixed with 5 ml of dextran (Sigma) solution and kept at 37° C. for 30 min. The upper white cell-rich layer was removed and 10 ml was layered on 9 ml of Ficol-Paque solution (Pharmacia) and centrifuged at 280 xg for 10 min. at 5° C. The supernatant was removed and the neutrophil pellet was resuspended in HEPES buffer containing 25 mM N-2-hydroxyethylpiperazine-N^1 -2-ethanesulfonic acid HEPES, 125 mM NaCl, 2.5 mM KCl, 0.7 mM MgCl2, […] 10 mM glucose at pH 7.4. The red cells in the suspension were lysed by hypotonic shock. The neutrophils were washed by centrifugation in HEPES buffer two times and finally resuspended at a concentration of 20×10^6 cells/ml in the presence of 1 mM CaCl2.
Neutrophils (0.2 ml of suspension) were preincubated with dimethylsulfoxide (DMSO) vehicle with or without test compound (1 ul) for 4 minutes then incubated for 5 minutes with [^14 C] arachidonic acid (Amersham, 59 Ci/mole) at a 9 uM final concentration, and the calcium ionophore A23187 (Calbiochem) at a 1 uM final concentration. These stimulants were added in 10 ul of water:ethanol (9:1). The reaction was stopped by addition of methanol (0.4 ml), and cellular debris was removed by centrifugation. Aliquots (100 ul) of the incubations were run on a Waters two pump HPLC system fitted with a DuPont Zorbax ODS, 5u, […] Reliance Cartridge column and C18 "Guard Pak". The column was initially eluted at 2 ml/min with 80% of the mixture water:methanol:acetic acid (46:54:0.08) containing 1 mM EDTA adjusted to pH 6.0 with ammonium hydroxide (Pump A) and 20% methanol (Pump B). At 10 minutes, a linear gradient to reach 100% methanol (Pump B) at 27 minutes was established. Between 27 and 28 minutes, methanol was exchanged for the initial eluting solvent and by 35 minutes the column had been reequilibrated for the next sample. The effluent was analyzed by a continuous flow radioactivity monitor (model ROMONA-D) interfaced with a Hewlett Packard Lab Automation System for quantitation of radioactive products. These were predominantly leukotriene B4 (LTB4) which eluted at 7 minutes, and 5-hydroxyeicosatetraenoic acid (5-HETE) which eluted at 20 minutes.

Row | Compound | inhibition at 10 µM [1] [%] | inhibition in vivo at 10 mg/kg ([2]; Dose 10 mpk) [%] | inhibition at 15 µM (5-lipoxygenase; read-out: % Inhibition 5-HETE) [%] | inhibition at 15 µM (5-lipoxygenase; read-out: % Inhibition LTB) [%] | inhibition [1] [%] | inhibition in vivo at 3 mg/kg [2] [%] | inhibition in vivo at 10 mg/kg [2] [%]
1 | COc1cc(OC)c2c(c1)C(C)(C)C(c1ccc(OC)c(OC)c1)CC2=NNC(N)=O (stereo not drawn) | 1 | 20 | 2 | 0 |  |  | 
2 | COc1cc(OC)c2c(c1)C(C)(C)C(c1ccc(OC)c(OC)c1)=CC2=NO |  | 0 | 0 | 9 | 0 |  | 
3 | COc1cc(OC)c2c(c1)C(C)(C)C(c1ccc(OC)c(OC)c1)=C(C)C2=O | 20 | 24 | 1 | 0 |  |  | 
4 | CCOc1cc(OC)cc2c1C(=NO)CC(c1ccc(OC)c(OC)c1)C2(C)C (stereo not drawn) |  |  |  |  |  | 25 | 
5 | COc1cc(O)c2c(c1)C(C)(C)C(c1ccc(OC)c(OC)c1)CC2=NO (stereo not drawn) |  | 0 | 42 |  |  |  | 
6 | COc1cc(OC)c2c(c1)C(C)(C)C(c1ccc(OC)c(OC)c1)CC2=NOC(=O)C(C)(C)C (stereo not drawn) |  | 20 |  |  |  |  | 
7 | CN(C)C(=O)Oc1cc(OC(=O)N(C)C)c2c(c1)C(C)(C)C(c1ccc(OC(=O)N(C)C)c(OC(=O)N(C)C)c1)=CC2=O |  |  |  |  |  |  | 10
8 | COc1cc(OC)c2c(c1)C(C)(C)C(c1ccc(OC)c(OC)c1)CC(=NO)C2 (stereo not drawn) [drawing 89 [X=CH2; R3/R4=NOH; P=OCH3]] |  |  | 87 |  | 46 | 0 | 
9 | COc1cc(OC)c2c(c1)C(C)(C)C(c1ccc(OC)c(OC)c1)CC(=O)C2 (stereo not drawn) [drawing 89 [X=CH2; R3/R4=O; P=OCH3]] |  | 0 | 87 | 97 | 47 |  | 
10 | COc1ccc2c(c1)C(C)(C)C(c1ccc(OC)c(OC)c1)CCN2 (stereo not drawn) [drawing 89 [X=NH; R3/R4=H,H; P=H]] |  | 42 | 73 |  | 57 |  | 
11 | COc1cc(OC)c2c(c1)C(C)(C)C(c1ccc(OC)c(OC)c1)CCN2 (stereo not drawn) [drawing 89 [X=NH; R3/R4=H,H; P=OCH3]] |  | 34 | 39 | 63 | 45 |  | 
12 | COc1cc(OC)c2c(c1)C(C)(C)C(c1ccc(OC)c(OC)c1)CC(=O)N2 (stereo not drawn) [drawing 89 [X=NH; R3/R4=O; P=OCH3]] |  |  | 0 | 2 | 65 | 20 | 
13 | COc1cc(OC)c2c(c1)C(C)(C)C(c1ccc(OC)c(OC)c1)CC(=O)O2 (stereo not drawn) [drawing 89 [X=O; R3/R4=O; P=OCH3]] |  | 4 | 9 |  | 59 |  | 
14 | COc1cc(OC)c2c(c1)C(C)(C)C(c1ccc(OC)c(OC)c1)CCC2=NO (stereo not drawn) [drawing 90 [X=NOH; W=H; J=H]] |  | 10 | 2 |  | 58 |  | 
15 | COc1cc(OC)c2c(c1)C(C)(C)C(c1ccc(OC)c(OC)c1)CC(C)C2=O (stereo not drawn) [drawing 90 [X=O; W=H; J=CH3]] |  | 53 | 28 |  | 61 |  | 
16 | COc1cc(OC)c2c(c1)C(C)(C)C(c1ccc(OC)c(OC)c1)CCC2=O (stereo not drawn) [drawing 90 [X=O; W=H; J=H]] |  | 56 | 51 | 45 | 78 |  | 
